Patent US8796259B2, “N3-heteroaryl substituted triazoles and N5-heteroaryl substituted triazoles useful as axl inhibitors” (Rigel Pharmaceuticals, Inc., priority 2006, dated 2014)

target: T1, Axl (Homo sapiens, UniProt P30530); test: Phospho-Akt in-cell Western assay (inhibition of Axl activity, Axl-antibody cross-linking stimulation); format: cell-based; conditions: Hela cells, phospho-Akt readout; compounds of formula (Ia), Table 1
T1 construct: endogenous in cells; host or cells: HeLa cells
T1 sequence (P30530 26-894): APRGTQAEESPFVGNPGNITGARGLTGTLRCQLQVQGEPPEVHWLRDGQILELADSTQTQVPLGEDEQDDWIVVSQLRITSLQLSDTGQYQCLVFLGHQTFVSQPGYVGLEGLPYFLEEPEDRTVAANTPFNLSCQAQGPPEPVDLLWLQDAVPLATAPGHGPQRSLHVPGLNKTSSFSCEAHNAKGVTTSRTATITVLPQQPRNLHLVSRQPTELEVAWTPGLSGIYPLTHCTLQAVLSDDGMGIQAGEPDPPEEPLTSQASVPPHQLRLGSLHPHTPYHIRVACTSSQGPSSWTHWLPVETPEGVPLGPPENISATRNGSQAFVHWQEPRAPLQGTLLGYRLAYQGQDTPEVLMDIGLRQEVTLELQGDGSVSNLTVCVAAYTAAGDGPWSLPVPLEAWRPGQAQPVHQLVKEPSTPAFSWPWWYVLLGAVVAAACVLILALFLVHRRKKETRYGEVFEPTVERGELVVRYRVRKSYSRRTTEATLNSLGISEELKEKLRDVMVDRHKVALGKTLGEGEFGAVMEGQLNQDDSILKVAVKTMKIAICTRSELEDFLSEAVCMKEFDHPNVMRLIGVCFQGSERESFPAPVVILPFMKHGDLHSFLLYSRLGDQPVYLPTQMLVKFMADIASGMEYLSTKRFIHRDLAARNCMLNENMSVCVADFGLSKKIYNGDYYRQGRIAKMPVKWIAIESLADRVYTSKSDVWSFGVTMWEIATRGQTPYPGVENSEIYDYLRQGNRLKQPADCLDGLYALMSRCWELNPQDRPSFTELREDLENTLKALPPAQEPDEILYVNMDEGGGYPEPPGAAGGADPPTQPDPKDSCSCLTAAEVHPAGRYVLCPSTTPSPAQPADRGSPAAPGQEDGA
Experimental: The compounds of the invention were tested in the following assay for their ability to inhibit Axl activity.
Phospho-Akt in-Cell Western Assay
• Cell culture plate: 96 well assay plate (Corning 3610), white, clear bottom, tissue-culture treated. • Cells: Hela cells. • Starvation medium: For Axl stimulation: 0.5% FCS (fetal calf serum) in DMEM, plus Axl/Fc (extracellular domain of AXL fused to immunoglobulin Fc region) (R&D, 154-AL) 500 ng/mL. • For EGF (epidermal growth factor) stimulation: 0.5% FCS in DMEM (Dulbecco's modified Eagles medium). • Poly-L-Lysine 0.01% solution (the working solution): 10 μg/ml, dilute In PBS (phosphate buffered saline). • Axl antibody cross-linking: • 1st: Mouse anti-Axl (R&D, MAB154). • 2nd: Biotin-SP-conjugated AffiniPure goat anti-mouse IgG (H+L) (Jackson ImmunoResearch #115-065-003). • Fixing buffer: 4% formaldehyde in PBS. • Wash buffer: 0.1% TritonX-100 in PBS. • Quenching buffer: 3% H2O2, 0.1% Azide in wash buffer, Azide and hydrogen peroxide (H2O2) are added fresh. • Blocking buffer: 5% BSA in TBST (tris buffered saline plus 0.1% Tween 20). • Primary antibody: Rabbit anti-human Phospho-Akt antibody (Cell Signaling 9271): 1×250 diluted in blocking buffer. • Secondary antibody: HRP (horse radish peroxidase)-conjugated Goat anti-Rabbit secondary, stock solution: Jackson ImmunoResearch (Goat anti-Rabbit HRP, #111-035-144) 1:1 diluted in glycerol, store at −20° C. The working solution: 1×2000 dilution of stock in blocking buffer. • Chemiluminescent working solution (Pierce, 37030): SuperSignal ELISA (enzyme linked immunosorbant assay) Pico Chemiluminescent substrate. • Crystal Violet solution: Stock: 2.5% Crystal violet in methanol, filtered and kept at ambient temperature. The working solution: dilute the stock 1:20 with PBS immediately before use.
10% SDS: working solution: 5% SDS (sodium dodecylsulfate), diluted in PBS
A 96 well TC (tissue culture treated) plate was coated with 10 μg/mL poly-L-Lysine at 37° C. for 30 min, washed twice with PBS, and air-dried for 5 minutes before cells were added. Hela cells were seeded at 10,000 cells/well and the cells were starved in 100 μL starvation medium containing Axl/Fc for 24 hrs.
The cells were pre-treated with test compounds by adding 100 μL of 2× test compound to the starvation medium on the cells. The cells were incubated at 37° C. for 1 hr before stimulation.
The cells were stimulated by Axl-antibody cross-linking as follows: A 5×1st/2nd Axl antibody mixture was made (37.5 μg/mL 1st/100 μg/mL 2 nd) in starvation medium and nutated at 4° C. with thorough mixing for 1-2 hours for clustering. The resulting mix was warmed to 37° C. 50 μL of 5×Axl 1st/2nd of antibody cluster was added to the cells and the cells were incubated at 37° C. for 5 min.
After 5 minutes stimulation, the plate was flicked to remove medium and the plate was tapped onto paper towels. Formaldehyde (4.0% in PBS, 100 μL) was added to fix the cells and the cells were incubated at ambient temperature for 20 min without shaking.
The cells were washed with a plate washer buffer to remove the formaldehyde solution. The plate was flicked to removed excess wash buffer and tapped onto paper towels. Quenching buffer (100 μL) was added to each well and the cells were incubated at ambient temperature for 20 minutes without shaking.
The cells were washed with a plate washer buffer to remove the quenching buffer. Blocking buffer (100 μL) was added and the cells were incubated at ambient temperature for at least an hour with gentle shaking.
The cells were washed with a plate washer buffer and diluted primary antibody (50 μL) was added to each well (blocking buffer was added to the negative control wells instead). The plates were incubated overnight at 4° C. with gentle shaking.
The wash buffer was removed, diluted secondary antibody (100 μL) was added, and the cells were incubated at ambient temperature for 1 hour with gentle shaking. […]

IC50 [µM]	SMILES
< 1	Cc1csc2c(-n3nc(Nc4cnc5c(c4)CN(C4CCCC4)CC5)nc3N)nc(Cl)nc12 [compound 52, 1-(2-chloro-7-methylthieno [3,2-d]pyrimidine-4-yl)-N^3-(6-cyclopentyl-5,6,7,8-tetrahydro-1,6-naphthyridin-3-yl)-1H-1,2,4-triazole-3,5-diamine]
< 1	Cc1cc(Nc2nc(N)n(-c3nccc4occc34)n2)cnc1N1CCC(N2CCCC2)CC1 [compound 53, 1-(furo[3,2-c]pyridine-4-yl)-N^3-(6-(4-(pyrrolidin-1-yl)piperidin-1-yl)-5-methylpyridin-3-yl)-1H-1,2,4-triazole-3,5-diamine]
< 1	Cc1cc(Nc2nc(N)n(-c3ncnc4sc5c(c34)CCC5)n2)cnc1N1CCC(N2CCCC2)CC1 [compound 54, 1-(6,7-dihydro-5H-cyclopenta [4,5]thieno[2,3-d]pyrimidin-4-yl)-N^3-(6-(4-(pyrrolidin-1-yl)piperidin-1-yl)-5-methyl-pyridin-3-yl)-1H-1,2,4-triazole-3,5-diamine]
< 1	Cc1nc(-n2nc(Nc3cnc(N4CCC(N5CCCC5)CC4)c(C)c3)nc2N)c2ccccc2n1 [compound 55, 1-(2-methyl-quinazolin-4-yl)-N^3-(6-(4-(pyrrolidin-1-yl)piperidin-1-yl)-5-methylpyridin-3-yl)-1H-1,2,4-triazole-3,5-diamine]
< 1	Cc1cc(Nc2nc(N)n(-c3ncnc4ccc(F)cc34)n2)cnc1N1CCC(N2CCCC2)CC1 [compound 56, 1-(6-fluoro-quinazolin-4-yl)-N^3-(6-(4-(pyrrolidin-1-yl)piperidin-1-yl)-5-methylpyridin-3-yl)-1H-1,2,4-triazole-3,5-diamine]
< 1	Cc1csc2c(-n3nc(Nc4ccc(N5CC6CN(C7CC8CCC7C8)CC6C5)nc4)nc3N)nc(Cl)nc12 (stereo not drawn) [compound 57, 1-(2-chloro-7-methylthieno [3,2-d]pyrimidine-4-yl)-N^3-(6-(5-bicyclo[2.2.1]heptan-2-yl-octahydropyrrol [3,4-c]pyrrolyl)pyridine-3-yl)-1H-1,2,4-triazole-3,5-diamine]
1 to 10	COc1cc2ncnc(-n3nc(Nc4ccc(Br)nc4)nc3NC(=NC#N)Nc3ccc(Br)nc3)c2cc1OC [compound 58, 1-(6,7-dimethoxy-quinazoline-4-yl)-N^3-(6-bromopyridin-3-yl)-5-(3-(6-bromopyridin-3-yl)-2-cyano-guanadino)-1H-1,2,4-triazole-3-amine]
> 20	COc1cc2ncnc(-n3nc(Nc4ccc(Br)nc4)nc3N)c2cc1OC [compound 59, 1-(6,7-dimethoxy-quinazoline-4-yl)-N^3-(6-bromopyridin-3-yl)-1H-1,2,4-triazole-3,5-diamine]
< 1	Cc1csc2c(-n3nc(Nc4cnc5c(c4)CC4(CC5)OCCO4)nc3N)nc(Cl)nc12 [compound 60, 1-(2-chloro-7-methylthieno [3,2-d]pyrimidin-4-yl)-N^3-(7′,8′-dihydro-5′H-spiro[[1,3]dioxolane-2,6′-quinoline]-3′-yl)-1H-1,2,4-triazole-3,5-diamine]
< 1	Cc1csc2c(-n3nc(Nc4cnc5c(c4)CN(C(=O)C4CCN(C)CC4)CC5)nc3N)nc(Cl)nc12 [compound 61, 1-(2-chloro-7-methylthieno [3,2-d]pyrimidin-4-yl)-N^3-(6-(1-methyl-piperidin-4-ylcarbonyl)-5,6,7,8-tetrahydro-1,6-naphthyridin-3-yl)-1H-1,2,4-triazole-3,5-diamine]
> 20	COc1cc2ncnc(-n3nc(Nc4cnc(N5CCC(N6CCCC6)CC5)nc4)nc3N)c2cc1OC [compound 62, 1-(6,7-dimethoxy-quinazoline-4-yl)-N^3-(2-(4-pyrrolidin-1-ylpiperidin-1-yl)pyrimidin-5-yl)-1H-1,2,4-triazole-3,5-diamine]

More lines, now with the values behind:

SMILES	IC50 [µM]
CCN(CC)C1CCN(c2ccc(Nc3nc(N)n(-c4ncnc5cc(OC)c(OC)cc45)n3)cn2)C1 (stereo not drawn) [compound 45, 1-(6,7-dimethoxy-quinazoline-4-yl)-N^3-(6-(3-diethyl-amino-pyrrolidin-1-yl)pyridin-3-yl)-1H-1,2,4-triazole-3,5-diamine]	< 1
Cc1csc2c(-n3nc(Nc4ccc(N5CCCN(C6CC7CCC6C7)CC5)nc4)nc3N)nc(Cl)nc12 (stereo not drawn) [compound 46, 1-(2-chloro-7-methylthieno [3,2-d]pyrimidin-4-yl)-N^3-(6-(4-(bicyclo[2.2.1]heptan-2-yl)-1,4-diazepan-1-yl)pyridin-3-yl)-1H-1,2,4-triazole-3,5-diamine]	< 1
COc1cc2ncnc(-n3nc(Nc4ccc(N5CCCN(C6CC7CCC6C7)CC5)nc4)nc3N)c2cc1OC (stereo not drawn) [compound 47, 1-(6,7-dimethoxy-quinazoline-4-yl)-N^3-(6-(4-(bicyclo [2.2.1]heptan-2-yl)-1,4-diazepan-1-yl)pyridin-3-yl)-1H-1,2,4-triazole-3,5-diamine]	< 1
Cc1csc2c(-n3nc(Nc4ccc(N5CCN(CC6CC6)CC5)nc4)nc3N)nc(Cl)nc12 [compound 48, 1-(2-chloro-7-methylthieno [3,2-d]pyrimidin-4-yl)-N^3-(6-(4-cyclopropyl-methyl-piperazin-1-yl)pyridin-3-yl)-1H-1,2,4-triazole-3,5-diamine]	< 1
Nc1nc(Nc2ccc(N3CCN(CC4CC4)CC3)nc2)nn1-c1ccc(C(F)(F)F)cn1 [compound 49, 1-(5-trifluoro-methylpyridin-2-yl)-N^3-(6-(4-cyclopropyl-methyl-piperazin-1-yl)pyridin-3-yl)-1H-1,2,4-triazole-3,5-diamine]	< 1
Cc1csc2c(-n3nc(Nc4cnc5c(c4)CN(CCN(C)C)CC5)nc3N)nc(Cl)nc12 [compound 50, 1-(2-chloro-7-methylthieno [3,2-d]pyrimidine-4-yl)-N^3-(6-(2-dimethyl-aminoethyl)-5,6,7,8-tetrahydro-1,6-naphthyridin-3-yl)-1H-1,2,4-triazole-3,5-diamine]	< 1
Cc1csc2c(-n3nc(Nc4cnc5c(c4)CC(NC4CCN(C)CC4)CC5)nc3N)nc(Cl)nc12 (stereo not drawn) [compound 51, 1-(2-chloro-7-methylthieno [3,2-d]pyrimidine-4-yl)-N^3-(6-(1-methyl-piperidin-4-ylamino)-5,6,7,8-tetrahydro-quinolin-3-yl)-1H-1,2,4-triazole-3,5-diamine]	< 1
